# Where a name gives a salt, the structure may show the parent alone.
row,Structure (SMILES),melting point
1,"O=C(c1ccc2[nH]nc(S(=O)(=O)c3cccc4ccccc34)c2c1)N1CCNCC1 (as salt: hydrochloride) [Example 202, 3-(1-Naphthylsulfonyl)-5-(piperazin-1 ylcarbonyl)-1H-indazole]",> 200 °C
2,C[C@@H]1CN(Cc2ccc3[nH]nc(S(=O)(=O)c4cccc5ccccc45)c3c2)CCN1 (as salt: HCl) [Example 200],179 to 181 °C
3,"CN(C)CCCc1ccc2[nH]nc(S(=O)(=O)c3cccc4ccccc34)c2c1 (as salt: hydrochloride) [Example 182, N,N-Dimethyl-N-{3-[3-(naphthylsulfonyl)-1H-indazol-5-yl]propyl}amine hydrochloride]",247 to 248 °C
4,CC1CN(Cc2ccc3[nH]nc(S(=O)(=O)c4cccc5ccccc45)c3c2)CC(C)N1 (centres unmarked) (as salt: HCl) [Example 198],> 200 °C
5,"O=S(=O)(c1cccc2ccccc12)c1n[nH]c2ccc(CN3CCNCC3)cc12 (as salt: hydrochloride) [Example 195, 3-(1-Naphthylsulfonyl)-5-(piperazin-1-ylmethyl)-1H-indazole]",> 200 °C
6,"CN(C)CCOCc1ccc2[nH]nc(S(=O)(=O)c3cccc4ccccc34)c2c1 (as salt: HCl) [Example 156, N,N-Dimethyl-2-{[3-(1-naphthylsulfonyl)-1H-indazol-5-yl]methoxy}ethanamine]",> 200 °C
7,"CC(C)NCCOc1ccc2c(c1)c(S(=O)(=O)c1cccc3ccccc13)nn2C (as salt: hydrochloride) [Example 45, Isopropyl-{2-[1-methyl-3-(naphthalene-1-sulfonyl)-1H-indazol-5-yloxy]-ethyl}-amine]",274 to 276 °C (dec.)
8,"CNCCOc1ccc2c(c1)c(S(=O)(=O)c1cccc3ccccc13)nn2C (as salt: hydrochloride) [Example 40, Methyl-{2-[1-methyl-3-(naphthalene-1-sulfonyl)-1H-indazol-5-yloxy]-ethyl}-amine]",272 to 274 °C (dec.)
9,CC1CN(Cc2ccc3[nH]nc(S(=O)(=O)c4cccc5ccccc45)c3c2)CCN1 (centres unmarked) (as salt: HCl) [Example 197],> 200 °C
10,C[C@H]1CN(Cc2ccc3[nH]nc(S(=O)(=O)c4cccc5ccccc45)c3c2)CCN1 (as salt: HCl) [Example 199],178 to 181 °C
11,"CN(C)CCN(C)Cc1ccc2[nH]nc(S(=O)(=O)c3cccc4ccccc34)c2c1 (as salt: hydrochloride) [Example 153, N,N, N′-Trimethyl-N′-{[3-(1-naphthylsulfonyl)-1H-indazol-5-yl]methyl}ethane-1,2-diamine]",> 200 °C
12,CN1CCN(Cc2ccc3[nH]nc(S(=O)(=O)c4cccc5ccccc45)c3c2)CC1 (as salt: HCl) [Example 196],> 200 °C
13,"CC(C)NCCOc1ccc2c(c1)c(S(=O)(=O)c1cccc3ccccc13)nn2Cc1cccc(Cl)c1 (as salt: hydrochloride) [Example 57, {2-[1-(3-Chloro-benzyl)-3-(naphthalene-1-sulfonyl)-1H-indazol-5-yloxy]-ethyl}-isopropyl-amine]",206 to 208 °C

# Continued, values first:
row,melting point,Structure (SMILES)
1,> 200 °C,"NCCNCc1ccc2[nH]nc(S(=O)(=O)c3cccc4ccccc34)c2c1 (as salt: hydrochloride) [Example 155, N{[3-(1-Naphthylsulfonyl)-1H-indazol-5yl]methyl}ethane-1.2-diamine]"
2,184 to 185 °C (dec.),"O=S(=O)(c1ccccc1)c1n[nH]c2ccc(OCCNC3CC3)cc12 (as salt: hydrochloride) [Example 8, [2-(3-Benzenesulfonyl-1H-indazol-5-yloxy)-ethyl]-cyclopropyl-amine]"
3,75 to 80 °C,"CN(C)CCCc1ccc2[nH]nc(S(=O)(=O)c3ccccc3)c2c1 (as salt: trifluoroacetate) [Example 177, N,N-Dimethyl-N-{3-[3-(phenylsulfonyl)-1H-indazol-5-yl]propyl}amine trifluoroacetate]"
4,76 to 80 °C,"CN(C)CCc1cccc2c(S(=O)(=O)c3ccccc3)n[nH]c12 (as salt: hydrochloride) [Example 171, N,N-Dimethyl-N-{2-[3-(phenylsulfonyl)-1H-indazol-7-yl]ethyl}amine hydrochloride]"
5,249 to 250 °C,"O=S(=O)(c1ccccc1)c1n[nH]c2ccc(OCCN3CCCCC3)cc12 (as salt: hydrochloride) [Example 3, 3-Benzenesulfonyl-5-(2-piperidin-1-yl-ethoxy)-1H-indazole]"
6,275 to 277 °C (dec.),"CC(C)NCCOc1ccc2[nH]nc(S(=O)(=O)c3ccccc3)c2c1 (as salt: hydrochloride) [Example 6, [2-(3-Benzenesulfonyl-1H-indazol-5-yloxy)-ethyl]-isopropyl-amine]"
7,255 to 258 °C (dec.),"O=S(=O)(c1ccccc1)c1n[nH]c2ccc(OCCNC3CCCC3)cc12 (as salt: hydrochloride) [Example 9, 3-Benzenesulfonyl-5-(2-cyclopentyl-1-yl-ethoxy)-1H-indazole]"
8,> 200 °C,N[C@@H]1CCN(Cc2ccc3[nH]nc(S(=O)(=O)c4cccc5ccccc45)c3c2)C1 (as salt: HCl) [Example 201]
9,169 to 171 °C,"CC(C)NCCCc1ccc2[nH]nc(S(=O)(=O)c3ccccc3)c2c1 (as salt: trifluoroacetate) [Example 179, N-Isopropyl-N-{3-[3-(phenylsulfonyl)-1H-indazol-5-yl]propyl}amine trifluoroacetate]"
10,120 to 125 °C,"NCCCCc1ccc2[nH]nc(S(=O)(=O)c3ccccc3)c2c1 (as salt: hydrochloride) [Example 181, {4-[3-(Phenylsulfonyl)-1H-indazol-5-yl]butyl}amine hydrochloride]"
11,115 to 117 °C,"O=S(=O)(c1ccccc1)c1n[nH]c2c(CCNC3CC3)cccc12 (as salt: hydrochloride) [Example 172, N-{2-[3-(phenylsulfonyl)-1H-indazol-7-yl]ethyl}cyclopropanamine hydrochloride]"
12,248 to 250 °C (dec.),"CCNCCOc1ccc2[nH]nc(S(=O)(=O)c3ccccc3)c2c1 (as salt: hydrochloride) [Example 4, [2-(3-Benzenesulfonyl-1H-indazol-5-yloxy)-ethyl]-ethyl-amine]"
13,> 200 °C,"O=S(=O)(c1cccc2ccccc12)c1n[nH]c2ccc(CN[C@H]3CCNC3)cc12 (as salt: hydrochloride) [Example 154, (3S)—N-{([3-(1-Naphthylsulfonyl)-1H-indazol-5-yl]methyl}pyrrolidin-3-amine Hydrochloride]"
14,108 to 110 °C,"CN(C)CCc1ccc2[nH]nc(S(=O)(=O)c3ccccc3)c2c1 (as salt: hydrochloride) [Example 176, N,N-Dimethyl-N-{2-[3-(phenylsulfonyl)-1H-indazol-5-yl]ethyl}amine hydrochloride]"
15,92 to 94 °C,"NCCCc1ccc2[nH]nc(S(=O)(=O)c3ccccc3)c2c1 (as salt: trifluoroacetate) [Example 180, {3-[3-(Phenylsulfonyl)-1H-indazol-5-yl]propyl}amine trifluoroacetate]"
16,271 to 273 °C (dec.),"CCCCNCCOc1ccc2[nH]nc(S(=O)(=O)c3ccccc3)c2c1 (as salt: hydrochloride) [Example 7, [2-(3-Benzenesulfonyl-1H-indazol-5-yloxy)-ethyl]-butyl-amine]"

# Source: patent publication US7723329B2, “Substituted-3-sulfonylindazole derivatives as 5-hydroxytryptamine-6 ligands” (Wyeth LLC, priority 2005, dated 2010)
